# Several values for one entry are separate records, joined by “and”; a condition that tells them apart may be missing. Equal values may be shown once.
# Assays:
# Test in all cases: ≥ marks a high value that may be exact or a test limit, other limits are often not marked, values filed in µg/mL are converted to µM
# [1] = test system: Bacillus anthracis Sterne 34F2
# [2] = test system: Bacillus subtilis ATCC 9372
# [3] = test system: Burkholderia thailandensis
# [4] = test system: Bacillus subtilis 168
# [5] = test system: Escherichia coli B
# [6] = test system: Pseudomonas aeruginosa
# [7] = test system: Staphylococcus aureus
# [8] = test system: Pseudomonas aeruginosa PAK
# [9] = test system: Streptococcus gordonii Challis DL1
# [10] = test system: Streptococcus mitis ATCC 903
# [11] = test system: Streptococcus mutans UA159
# [12] = test system: Streptococcus sanguinis NY101
# [13] = test system: Bacillus cereus
# [14] = test system: Candida albicans ATCC 2002
# [15] = test system: Escherichia coli ATCC 25922
# [16] = test system: Shigella dysenteriae
# [17] = test system: Staphylococcus aureus ATCC 2592
# [18] = test system: Staphylococcus aureus SAP 0017
MIC [6] [µM],MIC [7] [µM],MIC [8] [µM],MIC [9] [µM],MIC [10] [µM],MIC [11] [µM],MIC [12] [µM],SMILES,also measured
–,–,–,–,–,–,–,CC[C@H](C)[C@H](NC(=O)CNC(=O)[C@H](CO)NC(=O)[C@H](CC(C)C)NC(=O)[C@@H](NC(=O)[C@H](CCCN=C(N)N)NC(=O)CNC(=O)[C@@H](NC(=O)[C@H](CC(C)C)NC(=O)[C@@H]1CCCN1C(=O)[C@H](CC(C)C)NC(=O)[C@@H](N)Cc1ccccc1)[C@@H](C)CC)C(C)C)C(=O)N[C@@H](CC(C)C)C(=O)O [FLPLIGRVLSGIL],MIC [1]: ≥ 100 µM; MIC [2]: ≥ 100 µM; MIC [3]: ≥ 50 µM
> 100,> 100,–,–,–,–,–,CC[C@H](C)[C@H](NC(=O)[C@H](CC(C)C)NC(=O)[C@H](Cc1cnc[nH]1)NC(=O)CNC(=O)[C@@H]1CCCN1C(=O)[C@@H](NC(=O)[C@H](CCCCN)NC(=O)[C@H](CO)NC(=O)[C@H](Cc1c[nH]c2ccccc12)NC(=O)[C@H](CCSC)NC(=O)CN)[C@@H](C)CC)C(=O)N[C@@H](CCCN=C(N)N)C(N)=O [GMWSKIPGHLIR],MIC [4]: ≥ 100 µM; MIC [5]: 25 µM
–,9.27,4.63,4.63,9.27,4.63,4.63,CC(C)C[C@H](NC(=O)[C@H](CC(C)C)NC(=O)[C@H](CCCCN)NC(=O)[C@H](CC(C)C)NC(=O)[C@H](CC(C)C)NC(=O)[C@H](CCC(N)=O)NC(=O)[C@H](CCCCN)NC(=O)[C@H](CC(C)C)NC(=O)[C@H](CC(C)C)NC(=O)[C@H](CCC(N)=O)NC(=O)[C@@H](N)CC(C)C)C(=O)N[C@@H](CCCCN)C(=O)N[C@@H](CCC(N)=O)C(=O)N[C@@H](Cc1ccccc1)C(N)=O [LQLLKQLLKLLKQF],–
6.17,–,–,–,–,–,–,CSCC[C@@H]1NC(=O)[C@H](CC(C)C)NC(=O)[C@H](C)NC(=O)[C@H](CCCN=C(N)N)NC(=O)[C@H](CC(N)=O)NC(=O)[C@@H](NC(=O)[C@H](CCCCN)NC(=O)[C@H](CC(N)=O)NC(=O)[C@H](CCCN=C(N)N)NC(=O)[C@@H]2CCCN2C(=O)[C@H](CCSC)NC(=O)[C@H](CO)NC(=O)[C@H](CC(C)C)NC(=O)[C@H](C)NC(=O)[C@@H](N)CC(N)=O)CSSC[C@@H](C(=O)N[C@@H](Cc2ccccc2)C(=O)NCC(=O)O)NC1=O [NALSMPRNKCNRALMCFG],MIC [13]: 6.17 µM; MIC [14]: 3.08 µM; MIC [15]: 24.7 µM; MIC [16]: 3.08 µM; MIC [17]: 6.17 µM
–,9.43,9.43,4.72,4.72,2.36,4.72,CC[C@H](C)[C@H](NC(=O)[C@H](Cc1ccccc1)NC(=O)[C@H](Cc1cnc[nH]1)NC(=O)[C@H](CCCCN)NC(=O)[C@@H](NC(=O)[C@H](Cc1ccccc1)NC(=O)[C@@H](NC(=O)[C@H](C)NC(=O)[C@H](CO)NC(=O)[C@H](Cc1cnc[nH]1)NC(=O)[C@H](CC(C)C)NC(=O)[C@H](CC(C)C)NC(=O)[C@H](Cc1cnc[nH]1)NC(=O)[C@H](Cc1cnc[nH]1)NC(=O)[C@H](CC(C)C)NC(=O)[C@H](CCCCN)NC(=O)[C@H](CCCCN)NC(=O)[C@H](CC(C)C)NC(=O)[C@H](CC(C)C)NC(=O)[C@H](CCCN=C(N)N)NC(=O)[C@H](CCCN=C(N)N)NC(=O)[C@H](Cc1c[nH]c2ccccc12)NC(=O)[C@@H](N)CCCN=C(N)N)[C@@H](C)O)[C@@H](C)CC)C(=O)N[C@@H](Cc1cnc[nH]1)C(=O)N[C@@H](CCCN=C(N)N)C(=O)N[C@@H](Cc1ccccc1)C(N)=O [RWRRLLKKLHHLLHSATFIKHFIHRF],–
–,–,–,–,–,–,–,CC[C@H](C)[C@H](NC(=O)[C@H](C)NC(=O)[C@H](CCCN=C(N)N)NC(=O)[C@H](CC(C)C)NC(=O)[C@@H](NC(=O)[C@H](CCCCN)NC(=O)[C@H](CC(C)C)NC(=O)[C@H](CC(C)C)NC(=O)[C@H](Cc1c[nH]c2ccccc12)NC(=O)[C@H](CCCCN)NC(=O)[C@@H](NC(=O)[C@@H](N)C(C)C)[C@@H](C)CC)[C@@H](C)CC)C(N)=O [VIKWLLKILRAI],MIC [18]: 1 µM and 2 µM

# Reference: DBAASP
